Reference: patent publication US20240398709A1, “DRY POWDER FOAMABLE FORMULATIONS FOR DELIVERY OF MEDICAMENTS THROUGH THE MUCOSA” (priority 2021, published 2024)

Key:
mucositis = experiment: Amifostine oral rinse in a patient subject to chemotherapy (prevention/treatment of mucositis); assay type: in vivo, human; conditions: for safety of administration: 200 mg WR-2721 (10 ml 0.09 M) or 125 mg WR-1065 (10 ml 0.09 M)
Experimental: In this example, a patient is subject to chemotherapy as part of a treatment plan for head and neck cancer. The patient presents multiple squamous cell carcinoma tumors in the throat and larynx. The patient is administered amifostine for use after each chemotherapy session (e.g., for oral rinse within 15 minutes to two hours after chemotherapy).
The amifostine is administered to the patient in the formulation described above (Table 2). […] The patient rinses for approximately one minute and thereafter, expels/discards the rinse. The rinse process can be repeated.

mouth mucosa cells = experiment: Uptake of drug / WR-1065 into mouth mucosa cells after oral rinse; assay type: in vivo, human
Experimental: Specifically, 125 mg of amifostine is provided as an oral rinse. The patient rinses for approximately one minute and thereafter, expels/discards the rinse. The rinse process can be repeated.

[1] = after amifostine injection; animal study; cited from earlier work
[2] = test system: epirubicin-induced oral mucositis; conditions: patients with epirubicin-induced oral mucositis; cited from earlier work
[3] = following intravenous administration; cited from earlier work
[4] = cited from earlier work

WR-1065 concentration in washed, isolated, vital mouth mucosa cells (mouth mucosa cells) | Compound | safety of administration (mucositis) | systemic side-effects (mucositis; oral rinse) | tolerability (mucositis; oral rinse) | time of maximum tissue concentrations of WR-1065 [1] | difference between patients given amifostine oral rinse and control [2] | clearance from the plasma [3] | pH of maximal rate of hydrolysis ([4]; hydrolysis of amifostine to WR-1065 and inorganic phosphate) | hydrolysis at neutral pH ([4]; over four hours at room temperature) | stability at gastric pH ([4]; pH from 1 to 3)
3.7-19.9 ng/10^5 cells | NCCCNCCS [WR-1065] | can be safely administered | no systemic side-effects are observed | well-tolerated | five to fifteen |  |  |  |  | 
 | NCCCNCCSP(=O)(O)O [amifostine, S-2-(3-aminopropylamino) ethyl dihydrogen phosphorothioate] | can be safely administered |  |  |  | no significant difference | rapidly cleared | 3.0 | no detectable hydrolysis | unstable
